Data set [1] is classed as in vivo, BALB/c nude mice.
Description: 5-FU was repeatedly intraperitoneally administered to BALB/c nude mice (male, 7-week old, about 25 g in body weight, obtained from Japan SLC, Inc.) at 25 mg/kg, 50 mg/kg, or 100 mg/kg once a day for 4 days. Body weight was measured at the 5th day from the first starting day of administration and later to determine the rate of body weight reduction. The rate of body weight reduction was calculated based on the following equation.
Body weight reduction rate(%)=[{(Body weight at day prior to the date of first 5-FU administration)−(Body weight measured after start of 5-FU administration)}/(Body weight at day prior to the date of first 5-FU administration)]×100
Saline was administered to a control group in place of 5-FU.
For data set [2], the system named is HT29 cells. The data set is described as follows: Anti-tumor effect of repeated administration of 64Cu-ATSM and 5-FU in HT29 tumor-bearing mouse (tumor volume). It is filed as in vivo, BALB/c nude mice. The note with it: HT29 tumor-bearing mice; two cycles (start day 1 and 25th day) of 5-FU 25 mg/kg i.p. x4 days and 64Cu-ATSM 37 MBq at final day; to day 34; 6 mice. How it is done: The HT29 tumor-bearing model was prepared in the same way as Example 2; 1 week after the implantation of HT29 cells, 5-FU was repeatedly intraperitoneally administered at 25 mg/kg once a day for 4 days; and at the final day (4th day) of 5-FU administration, 37 MBq (1 mCi) of ^64Cu-ATSM was administered through the tail vein. The administration of 5-FU was again started at the 25th day from the start of 5-FU administration, with 25 mg/kg thereof repeatedly administered once a day for 4 days. At the final day of 5-FU administration, 37 MBq (1 mCi) of ^64Cu-ATSM was then administered through the tail vein. […] The tumor size in mice was measured 2, 4, 8, 12, 14, 16, 20, 24, 27, 31, or 34 days after starting the administration of 5-FU.
The experiment was carried out in the same way as Example 7 except for administering saline in place of ^64Cu-ATSM.
The experiment was carried out in the same way as Example 7 except for administering saline in place of 5-FU.
The volume of tumor was calculated from the size of tumor measured in Example 7 and Comparative Examples 6 and 7; the change thereof with time is shown in FIG. 5. In FIG. 5, the tumor volume at the day prior to the day of the first start of 5-FU administration was set to 100%, and the percentage based thereon was given. In FIG. 5, data are expressed in average and standard deviation for 6 mice.

Data set [3] concerns CD133+ cells in HT29 tumor. It counts as in vivo, BALB/c nude mice. The note with it: tumor removed 2 days after 64Cu-ATSM administration; 5-FU 25 mg/kg x4 days, 64Cu-ATSM 37 or 74 MBq; anti-CD133 flow cytometry; 6 mice. How it is done:
(§1) Human large bowel cancer-derived HT29 cells were purchased from ATCC and proliferated for use. […] At the final day of 5-FU administration, 37 MBq (1 mCi) of ^64Cu-ATSM was administered through the tail vein.
(§2) Cu-ATSM. The tumor size in mice was measured 2, 4, 8, 12, or 15 days after starting the administration of 5-FU. Cells obtained from the tumor removed at 2 days after the administration of ^64Cu-ATSM were subjected to the detection of apoptotic cells and CD133-positive (CD133+) cells using flow cytometry (Guava flow cytometry, from Millipore Corporation). The detection of apoptotic cells was performed using Annexin V (Mouse Anti-Human Annexin V FITC, AbD MCA2712F, from Serotec Co., Ltd.). The detection of CD133+cells was performed using an anti-CD133 antibody (CD133/1(A133)-PE, from Miltenyi Biotec K.K.).
In FIG. 3, the results of percentages of CD133+cells in the removed tumor are expressed in average and standard deviation for 6 mice.
On the technique in general: Flow cytometry measures light scatter and fluorescence of single cells or particles in a stream.

For data set [4], the system named is Human large bowel cancer-derived HT29 cells. The data set is described as follows: Detection of apoptotic cells in removed HT29 tumor by flow cytometry (Annexin V). It counts as in vivo, BALB/c nude mice. The note with it: tumor removed 2 days after 64Cu-ATSM administration, 5-FU 25 mg/kg x4 days, 64Cu-ATSM 37 or 74 MBq, 6 mice. How it is done: as §1, §2
In FIG. 2, the results of percentages of apoptotic cells in the removed tumor are expressed in average and standard deviation for 6 mice.

The test system is the same in data set [5]. The data set is described as follows: Anti-tumor effect of 64Cu-ATSM and 5-FU in HT29 tumor-bearing mouse (tumor volume). The note with it: HT29 tumor-bearing mice; 5-FU 25 mg/kg i.p. once a day x4 days; 64Cu-ATSM 37 MBq (74 MBq in Comparative Example 3) via tail vein at final day; measured to day 15; 6 mice. It counts as in vivo, BALB/c nude mice. How it is done:
as §1, §2
The experiment was carried out in the same way as Example 2 except for administering saline in place of ^64Cu-ATSM.
The experiment was carried out in the same way as Example 2 except for administering saline in place of 5-FU.
Saline was administered in place of 5-FU. The dose of ^64Cu-ATSM was 74 MBq (2 mCi). The experiment was carried out in the otherwise same way as Example 2.
The volume of tumor was calculated from the size of tumor measured in Example 2 and Comparative Examples 1 to 3; the change thereof with time is shown in FIG. 1. […]

Data set [6] has as its system HT29 cells. The data set is described as follows: Anti-tumor effect of 64Cu-ATSM and 6TG or PT in HT29 tumor-bearing mouse (tumor volume). It counts as in vivo, BALB/c nude mice. As to conditions: HT29 tumor-bearing mice; 6TG 12.5 mg/kg or PT 200 mg/kg i.p. once a day x4 days; 64Cu-ATSM 37 MBq via tail vein at final day (74 MBq alone in Comparative Example 3); to day 15; 6 mice. How it is done: The HT29 tumor-bearing model was prepared in the same way as Example 2, and 1 week after the implantation of HT29 cells, 6TG was repeatedly intraperitoneally administered at 12.5 mg/kg once a day for 4 days. At the final day of 6TG administration, 37 MBq (1 mCi) of ^64Cu-ATSM was administered through the tail vein. […] The tumor size in mice was measured 2, 4, 8, 12, or 15 days after starting the administration of 6TG.
The experiment was carried out in the same way as Example 5 except for administering saline in place of ^64Cu-ATSM.
The HT29 tumor-bearing model was prepared in the same way as Example 2, and 1 week after the implantation of HT29 cells, PT was repeatedly intraperitoneally administered at 200 mg/kg once a day for 4 days. At the final day of PT administration, 37 MBq (1 mCi) of ^64Cu-ATSM was administered through the tail vein. […] The tumor size in mice was measured 2, 4, 8, 12, or 15 days after starting the administration of PT.
The experiment was carried out in the same way as Example 6 except for administering saline in place of ^64Cu-ATSM.
The volume of tumor was calculated from the size of tumor measured in Examples 5 and 6 and Comparative Examples 4 and 5; the change thereof with time is shown in FIG. 4. In FIG. 4, the tumor volume at the day prior to the day of the start of 6TG or PT administration was set to 100%, and the percentage based thereon was given. In FIG. 4, data are expressed in average and standard deviation for 6 mice. In addition, the results of Example 2 and Comparative Examples 1 to 3 were shown together in FIG. 4.

Data set [7] is described as follows: Study of dose of 6TG using nude mouse (rate of body weight reduction, death).
Description: 6TG was repeatedly intraperitoneally administered to BALB/c nude mice (male, 7-week old, about 25 g in body weight, obtained from Japan SLC, Inc.) at 12.5 mg/kg, 25 mg/kg, or 50 mg/kg once a day for 4 days. Body weight was measured at the 5th day from the first starting day of administration and later to determine the rate of body weight reduction. The rate of body weight reduction was calculated based on the following equation.
Body weight reduction rate(%)=[{(Body weight at day prior to the date of first 6TG administration)−(Body weight measured after start of 6TG administration)}/(Body weight at day prior to the date of first 6TG administration)]×100
Saline was administered to a control group in place of 6TG. In Table 2, they were expressed in average and standard deviation for 4 mice.
Data set [8] can be described thus: Study of dose of PT using nude mouse (rate of body weight reduction). It is filed as in vivo, BALB/c nude mice. The note with it: for Rate of Body Weight Reduction (%): average ± SD, 4 mice.
Description: PT was repeatedly intraperitoneally administered to BALE/c nude mice (male, 7-week old, about 25 g in body weight, obtained from Japan SLC, Inc.) at 25, 50, 100, or 200 mg/kg once a day for 4 days. Body weight was measured at the 5th day from the first starting day of administration and later to determine the rate of body weight reduction. The rate of body weight reduction was calculated based on the following equation.
Body weight reduction rate(%)=[{(Body weight at day prior to the date of first PT administration)−(Body weight measured after start of PT administration)}/(Body weight at day prior to the date of first PT administration)]×100
Saline was administered to a control group in place of PT. In Table 3, they were expressed in average and standard deviation for 4 mice.
Another data set relates to CD133-positive cells. The note with it: Yoshii et al. (2010), Nucl. Med. Biol. 37, 395-404; cited from earlier work.
Data set [9] deals with CD133-positive cells in tumor. The note with it: Yoshii et al. (2011), Nucl. Med. Biol. 38, 151-157; cited from earlier work.
A further data set concerns tumor. The note with it: compared with 18FDG; Japanese Patent Laid-Open No. 2010-13380; cited from earlier work.

Like-named read-outs stand apart in the source and are kept apart here.

The text below walks through data of US20140186261A1, “ANTI-TUMOR AGENT AND ANTI-TUMOR KIT” (NIHON MEDI-PHYSICS CO., LTD., priority 2012, published 2014).

`O=c1[nH]cc(F)c(=O)[nH]1` [5-FU, 5-Fluorouracil]: the figures for the death of mice result in data set [1] (5-FU 50 mg/kg i.p. once a day for 4 days) and in data set [1] (5-FU 100 mg/kg i.p. once a day for 4 days) were “died at the 10th or 11th day from administration” and “died at the 7th or 8th day from administration”, respectively. In addition, the “tumor volume, change with time (FIG. 5; % of volume at day prior to first start of 5-FU administration)” value with HT29 cells [2] is “could hardly suppress the proliferation of tumor”. Further, the “percentage of CD133+ cells in tumor (FIG. 3)” value in data set [3] is listed as “can kill CD133+cells”. The “percentage of apoptotic cells in tumor (FIG. 2)” value in data set [4] was “apoptosis of tumor cells was confirmed”. In addition, the “tumor volume, change with time (FIG. 1; % of volume at day prior to start of 5-FU administration)” value in data set [5] is recorded as “did not suppress the proliferation of tumor”.

Take `Nc1nc2nc[nH]c2c(=S)[nH]1` [6TG, 6-Thioguanine]: the “tumor volume, change with time (FIG. 4; % of volume at day prior to start of 6TG or PT administration)” value in the data set on HT29 cells [6] is listed as “could not suppress the proliferation of tumor”. Also, the figures for the death of mice entry in [7] (6TG 25 mg/kg i.p. once a day for 4 days) and in data set [7] (6TG 50 mg/kg i.p. once a day for 4 days) were “died at the 13th to 15th day from administration” and “died at the 6th to 8th day from administration”, respectively.

In the case of `Nc1nc2[nH]cc(CCc3ccc(C(=O)N[C@@H](CCC(=O)O)C(=O)O)cc3)c2c(=O)[nH]1` [PT, Pemetrexed], the “tumor volume, change with time (FIG. 4; % of volume at day prior to start of 6TG or PT administration)” value with HT29 cells [6] is recorded as “could not suppress the proliferation of tumor”. For the same compound, the “Rate of Body Weight Reduction (%)” value is −8.42 ± 12.36% in data set [8] (PT 25 mg/kg/day i.p. once a day for 4 days, 5th Day); −12.11 ± 13.3% in [8] (PT 25 mg/kg/day i.p. x4 days, 9th Day); −10.94 ± 12.04% in data set [8] (PT 25 mg/kg/day i.p. x4 days, 12th Day); −14.11 ± 11.25% in data set [8] (PT 25 mg/kg/day i.p. x4 days, 16th Day); −15.38 ± 9.65% in [8] (PT 25 mg/kg/day i.p. x4 days, 18th Day); −3.94 ± 7.7% in [8] (PT 50 mg/kg/day i.p. x4 days, 5th Day). For the same compound, the “Rate of Body Weight Reduction (%)” value in data set [8] (PT 50 mg/kg/day i.p. x4 days, 9th Day) is reported as −12.12 ± 5.33%; in [8] (PT 50 mg/kg/day i.p. x4 days, 12th Day) it was −12.91 ± 7.21%; in data set [8] (PT 50 mg/kg/day i.p. x4 days, 16th Day), −16.03 ± 8.57%; in data set [8] (PT 50 mg/kg/day i.p. x4 days, 18th Day), −15.41 ± 11.86%; in [8] (PT 100 mg/kg/day i.p. x4 days, 5th Day) it was −5.03 ± 8.95%; in [8] (PT 100 mg/kg/day i.p. x4 days, 9th Day) it was −12.82 ± 9.29%. Also, the “Rate of Body Weight Reduction (%)” value in data set [8] (PT 100 mg/kg/day i.p. x4 days, 12th Day) is −16.86 ± 8.46%; in [8] (PT 100 mg/kg/day i.p. x4 days, 16th Day), −20.08 ± 9.11%; in [8] (PT 100 mg/kg/day i.p. x4 days, 18th Day), −21.05 ± 6.18%; in [8] (PT 200 mg/kg/day i.p. x4 days, 5th Day), −5.75 ± 9.93%; in data set [8] (PT 200 mg/kg/day i.p. x4 days, 9th Day) it was −15.25 ± 10.49%; in data set [8] (PT 200 mg/kg/day i.p. x4 days, 12th Day), −18.1 ± 9.64%. Besides, the “Rate of Body Weight Reduction (%)” value in data set [8] (PT 200 mg/kg/day i.p. x4 days, 16th Day) is reported as −18.1 ± 9.64%; in [8] (PT 200 mg/kg/day i.p. x4 days, 18th Day) it was −17.19 ± 9.86%. For the same compound, in data set [8] (PT, all groups (25, 50, 100, 200 mg/kg once a day for 4 days), even at the 18th day), the “rate of body weight reduction” value is not above 10%.

As for “diacetyl-bis(N4-methylthiosemicarbazone) copper complex [^64Cu-ATSM]”, the “tumor volume, change with time (FIG. 4; % of volume at day prior to start of 6TG or PT administration)” value in the data set on HT29 cells [6] is “could suppress the proliferation of tumor depending on the dose thereof”. For the same compound, in the data set on CD133-positive cells, the “accumulation in CD133-positive cells” value is on record as “accumulates in CD133-positive cells”. Besides, the “amount of CD133-positive cells in tumor and tumor size” value in data set [9] was “decreased the amount of CD133-positive cells in tumor to shrink the tumor”. For the same compound, the “tumor volume, change with time (FIG. 5; % of volume at day prior to first start of 5-FU administration)” value in the data set with HT29 cells [2] was “suppressed the proliferation of tumor depending on the dose thereof”. Further, the “percentage of CD133+ cells in tumor (FIG. 3)” value in data set [3] is recorded as “can kill CD133+cells”. Besides, the “percentage of apoptotic cells in tumor (FIG. 2)” value in data set [4] is given as “apoptosis of tumor cells was confirmed”. Further, the “tumor volume, change with time (FIG. 1; % of volume at day prior to start of 5-FU administration)” value in [5] is on record as “suppressed the proliferation of tumor depending on the dose thereof”. Further, in the data set with tumor, the “sites of accumulation in tumor” value is “accumulate in sites different from those for ^18FDG in tumor”.
